Where two headings read alike, the source gives them in different places.
Assays:
ryegrass, Italian = assay: Test C pre-/postemergence herbicide test; type: in vivo, Lolium multiflorum
In short: (§1)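 Pre- and postemergence greenhouse screen. Preemergence treatment went onto freshly planted seeds in loam–sand soil; postemergence treatment went onto plants 2 to 18 cm tall at the 1- to 4-leaf stage in sphagnum peat/vermiculite medium. Scoring at 13 to 15 days used a 0–100 control scale.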

waterhemp = assay: Test C pre-/postemergence herbicide test; type: in vivo, Amaranthus rudis
In short: as §1

oat, wild = assay: Test C pre-/postemergence herbicide test; type: in vivo, Avena fatua; conditions: Postemergence
In short: as §1

corn = assay: Test C pre-/postemergence herbicide test; type: in vivo, Zea mays
In short: as §1

soybean = assay: Test C pre-/postemergence herbicide test; type: in vivo, Glycine max
In short: as §1

johnsongrass = assay: Test C pre-/postemergence herbicide test; type: in vivo, Sorghum halepense
In short: as §1

galium = assay: Test C pre-/postemergence herbicide test; type: in vivo, Galium aparine
In short: as §1

blackgrass = assay: Test C pre-/postemergence herbicide test; type: in vivo, Alopecurus myosuroides
In short: as §1

ragweed = assay: Test C pre-/postemergence herbicide test; type: in vivo, Ambrosia elatior; conditions: Postemergence
In short: as §1

wheat = assay: Test A pre-/postemergence herbicide test; type: in vivo, Triticum aestivum; conditions: for plant injury at 500 g/ha: 500 g ai/ha
In short: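 Visual injury ratings, 0 = no effect, 100 = complete control, taken ~10 days after treatment against untreated greenhouse controls. Preemergence: directed soil spray onto seeded loam/sand pots. Postemergence: spray onto plants at one- to two-leaf stage, 2–10 cm tall.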

crabgrass, large = assay: Test C pre-/postemergence herbicide test; type: in vivo, Digitaria sanguinalis
In short: as §1

oilseed rape = assay: Test C pre-/postemergence herbicide test; type: in vivo, Brassica napus
In short: as §1

[1] = Postemergence, 31 g ai/ha, scale 0 (no effect) to 100 (complete control)
[2] = Postemergence, 62 g ai/ha, scale 0 to 100 (0 no effect, 100 complete control)
[3] = Postemergence, 125 g ai/ha, scale 0 to 100 (0 no effect, 100 complete control)
[4] = Postemergence, 250 g ai/ha, scale 0 to 100 (0 no effect, 100 complete control)
[5] = Preemergence, 31 g ai/ha, scale 0 to 100, 0 is no effect and 100 is complete control
[6] = Preemergence, 62 g ai/ha, scale 0 to 100
[7] = Preemergence, 125 g ai/ha, scale 0 to 100 (0 no effect, 100 complete control)
[8] = 31 g ai/ha, scale 0 (no effect) to 100 (complete control)
[9] = 62 g ai/ha, scale 0 to 100 (0 no effect, 100 complete control)
[10] = 125 g ai/ha, scale 0 to 100 (0 no effect, 100 complete control)
[11] = 250 g ai/ha, scale 0 to 100 (0 no effect, 100 complete control)

## O=C1NCC(c2ccc(C(F)(F)F)cc2)C1C(=O)Nc1cccc(F)c1F (stereo not drawn) [Compound 80, N-(2,3-difluorophenyl)-2-oxo-4-[4-(trifluoromethyl)phenyl]-3-pyrrolidinecarboxamide]
ryegrass, Italian; [1]
  Plant response rating, Ryegrass, Italian: 0
ryegrass, Italian; [2]
  Plant response rating, Ryegrass, Italian: 0
ryegrass, Italian; [3]
  Plant response rating, Ryegrass, Italian: 0
ryegrass, Italian; [4]
  Plant response rating, Ryegrass, Italian: 0
ryegrass, Italian; [5]
  Ryegrass, Italian plant response rating: 0
ryegrass, Italian; [6]
  Plant response rating, Ryegrass, Italian: 40
ryegrass, Italian; [7]
  Plant response rating, Ryegrass, Italian: 40
ryegrass, Italian; Preemergence, 250 g ai/ha
  Plant response rating (scale of 0 to 100), Ryegrass, Italian: 45
waterhemp; [1]
  Plant response rating, Waterhemp: 30
waterhemp; [2]
  Plant response rating, Waterhemp: 45
waterhemp; [3]
  Plant response rating, Waterhemp: 45
waterhemp; [4]
  Plant response rating, Waterhemp: 65
waterhemp; [5]
  Waterhemp plant response rating: 15
waterhemp; [6]
  Plant response rating, Waterhemp: 80
waterhemp; [7]
  Plant response rating, Waterhemp: 90
waterhemp; Preemergence, 250 g ai/ha
  Plant response rating (scale of 0 to 100), Waterhemp: 90
oat, wild; [8]
  Plant response rating, Oat, Wild: 0
oat, wild; [9]
  Plant response rating, Oat, Wild: 0
oat, wild; [10]
  Plant response rating, Oat, Wild: 0
oat, wild; [11]
  Plant response rating, Oat, Wild: 0
corn; [1]
  Plant response rating, Corn: 0
corn; [2]
  Plant response rating, Corn: 5
corn; [3]
  Plant response rating, Corn: 5
corn; [4]
  Plant response rating, Corn: 10
corn; [5]
  Corn plant response rating: 0
corn; [6]
  Plant response rating, Corn: 0
corn; [7]
  Plant response rating, Corn: 0
corn; Preemergence, 250 g ai/ha
  Plant response rating (scale of 0 to 100), Corn: 65
soybean; [1]
  Plant response rating, Soybean: 0
soybean; [2]
  Plant response rating, Soybean: 5
soybean; [3]
  Plant response rating, Soybean: 5
soybean; [4]
  Plant response rating, Soybean: 25
soybean; [5]
  Soybean plant response rating: 0
soybean; [6]
  Plant response rating, Soybean: 0
soybean; [7]
  Plant response rating, Soybean: 0
soybean; Preemergence, 250 g ai/ha
  Plant response rating (scale of 0 to 100), Soybean: 0
johnsongrass; [1]
  Plant response rating, Johnsongrass: 5
johnsongrass; [2]
  Plant response rating, Johnsongrass: 5
johnsongrass; [3]
  Plant response rating, Johnsongrass: 5
johnsongrass; [4]
  Plant response rating, Johnsongrass: 10
johnsongrass; [5]
  Johnsongrass plant response rating: 0
johnsongrass; [6]
  Plant response rating, Johnsongrass: 0
johnsongrass; [7]
  Plant response rating, Johnsongrass: 30
johnsongrass; Preemergence, 250 g ai/ha
  Plant response rating (scale of 0 to 100), Johnsongrass: 55
galium; [1]
  Plant response rating, Galium: 5
galium; [2]
  Plant response rating, Galium: 55
galium; [3]
  Plant response rating, Galium: 65
galium; [4]
  Plant response rating, Galium: 65
galium; [5]
  Galium plant response rating: 5
galium; [6]
  Plant response rating, Galium: 90
galium; [7]
  Plant response rating, Galium: 90
galium; Preemergence, 250 g ai/ha
  Plant response rating (scale of 0 to 100), Galium: 90
blackgrass; [1]
  Plant response rating, Blackgrass: 0
blackgrass; [2]
  Plant response rating, Blackgrass: 0
blackgrass; [3]
  Plant response rating, Blackgrass: 0
blackgrass; [4]
  Plant response rating, Blackgrass: 5
blackgrass; [5]
  Blackgrass plant response rating: 30
blackgrass; [6]
  Plant response rating, Blackgrass: 80
blackgrass; [7]
  Plant response rating, Blackgrass: 85
blackgrass; Preemergence, 250 g ai/ha
  Plant response rating (scale of 0 to 100), Blackgrass: 90
ragweed; [8]
  Plant response rating, Ragweed: 30
ragweed; [9]
  Plant response rating, Ragweed: 30
ragweed; [10]
  Plant response rating, Ragweed: 30
ragweed; [11]
  Plant response rating, Ragweed: 30
wheat; Preemergence, 125 g ai/ha, visual rating on 0 to 100 scale (0 no effect, 100 complete control)
  Wheat plant response rating: 0
wheat; Triticum aestivum, post-emergence, 240 h, Postemergence, 125 g ai/ha, 0 to 100 scale, 0 no effect, 100 complete control, read-out: Plant response rating, Wheat
  plant injury at 125 g/ha: 40%
wheat; Triticum aestivum, post-emergence, 240 h, Postemergence, 0 to 100 scale (0 no effect, 100 complete control), read-out: Plant response rating, Wheat
  plant injury at 500 g/ha: 50%
wheat; Triticum aestivum, pre-emergence, 240 h, preemergence, 0 to 100 scale, read-out: Plant response rating, Wheat
  plant injury at 500 g/ha: 20%
crabgrass, large; [1]
  Plant response rating, Crabgrass, Large: 5
crabgrass, large; [2]
  Plant response rating, Crabgrass, Large: 40
crabgrass, large; [3]
  Plant response rating, Crabgrass, Large: 65
crabgrass, large; [4]
  Plant response rating, Crabgrass, Large: 75
crabgrass, large; [5]
  Crabgrass, Large plant response rating: 95
crabgrass, large; [6]
  Plant response rating, Crabgrass, Large: 98
crabgrass, large; [7]
  Plant response rating, Crabgrass, Large: 98
crabgrass, large; Preemergence, 250 g ai/ha
  Plant response rating (scale of 0 to 100), Crabgrass, Large: 100
Oilseed rape; [1]
  Plant response rating, Oilseed Rape: 0
Oilseed rape; [2]
  Plant response rating, Oilseed Rape: 0
Oilseed rape; [3]
  Plant response rating, Oilseed Rape: 20
Oilseed rape; [4]
  Plant response rating, Oilseed Rape: 60
Oilseed rape; [5]
  Oilseed Rape plant response rating: 5
Oilseed rape; [6]
  Plant response rating, Oilseed Rape: 85
Oilseed rape; [7]
  Plant response rating, Oilseed Rape: 90
Oilseed rape; Preemergence, 250 g ai/ha
  Plant response rating (scale of 0 to 100), Oilseed Rape: 90
